Reference: patent US20190390245A1, “CYTOTOXICITY TEST METHOD FOR MEDICAL DEVICE” (ALCON INC., priority 2018, published 2019)
Read-outs that look alike come from different tables or passages of the source.

Key:
L929 cells [1] = assay: Two layer embedded modified agar overlay cytotoxicity test
Description: The test article meets the ‘pass’ criteria of the test if the biological response is less than or equal to grade 2 (mild).
1×MEMAOM was used as the nutrient supplement agar at 2 mL/well.
B) Two layer embedded modified agar overlay. The test materials were added after the base nutrient agar solidified, and 2.0 mL of L929 (1.8×10^6 cells/mL) cell agar mixture described above was added on top of the test materials to fully cover the test materials with a final cell concentration of 3.6×10^6 cells/well. After 24 hours of incubation, cells were examined as described in ISO/USP agar overlay method.
C) For the extended study duration, cells were prepared as described in A) and B). Reference material A and no treatment were evaluated for up to 72-hour incubation.
D) two layer modified and embedded modified agar overlay for liquid materials. Paper filter discs (100 μL of either 100% Ethanol or 2000 ppm BAK) were prepared as described in A) and B).

L929 cells [2] = conditions: concentration known to be toxic to the rabbit eyes; Bruinink and Luginbuehl, 2012; cited from earlier work
L929 cells [3] = assay: ISO/USP (traditional) agar overlay cytotoxicity test; type: cell-based, Mouse
Description: The ISO 10993-5 (2009) qualitative agar diffusion/overlay assay is appropriate for high density materials and liquids. This assay is conducted by adding a thin layer of nutrient-supplemented agar over the near confluent monolayer of L929 cells, and the test material (a solid sample, or an extract of the test material or liquid placed on filter paper) is placed on top of the agar layer. The cushioning effect of an agar layer protects the L929 cells from the potential mechanical damage by the test material's movement. Cells are examined after 24-hours incubation for signs of toxicity and stained with neutral red dye to differentiate between the viable, stressed or lysed cells. Cytotoxic leachates diffuse into the cell layer through the agar, and toxicity is indicated by a loss of viable cells around the test device as evidenced by area devoid of stain under and around the test material. The disadvantage of agar overlay assay is that potential cytotoxic leachates may bind to the agar and not be able to diffuse across the plate as compared to the liquid medium; thus, the cells are not fully exposed to the test substance.

| Compound | Color zone formation (observation), Two layer embedded Modified Agar Overlay (L929 cells [1]; Table 4, liquids, 100 μL on paper filter) | Cytotoxicity responses, traditional agar overlay method (previous observations) (L929 cells [2]) | Grade, color zone formation, ISO/USP Agar Overlay (L929 cells [3]) | Color zone formation (observation), Two layer embedded Modified Agar Overlay (L929 cells [1]) |
| --- | --- | --- | --- | --- |
| CCO [Ethanol, ethanol] | no zone |  |  |  |
| Benzalkonium Chloride [BAK] |  | failed to show cytotoxicity responses | Grade 0 | no zone |
